Test results published in ChEMBL document CHEMBL6096671, “Discovery of VU6024578/BI02982816: An mGlu1 Positive Allosteric Modulator with Efficacy in Preclinical Antipsychotic and Cognition Models” (J Med Chem, 2024).
Activity calls are given as the source filed them. The rule behind the calls is not given here.

Legend:
[1] = Unbound initial plasma concentration in male dog; assay type: ADME, Canis lupus familiaris
[2] = Initial plasma concentration in male dog; assay type: ADME, Canis lupus familiaris; settings: read-out: C0
[3] = target: T1, Metabotropic glutamate receptor 1 (Homo sapiens, UniProt Q13255); test: Positive allosteric modulation of human mGlu1
[4] = Toxicity in male Sprague-Dawley rat assessed as catalepsy at 1.5 mg/kg, ip measured after 100 mins; assay type: organism-based; settings: in vivo, 1.667 h
[5] = Mutagenicity in Salmonella typhimurium by Ames test; assay type: toxicity; settings: salmonella enterica subsp. enterica serovar typhimurium
[6] = Drug metabolism in rat liver microsomes assessed as furanyl ring opening incubated for 60 mins; assay type: ADME, Microsome; settings: 1 h
[7] = Toxicity in male Wistar rat assessed as improvement in sleep-wake profile by measuring active wake state at 10 mg/kg, po measured at 120 mins post treatment by EEG analysis; assay type: organism-based; settings: in vivo, 2 h
Mus musculus [8] = test: Reversal of MK-801 induced N1 sensory gating deficit in male C57BL/6JRj mouse model assessed as improvement in cognitive deficits at 10 mg/kg, sc; assay type: functional, organism-based
[9] = Antagonist activity at peripheral Benzodiazepine receptor (unknown origin); set-up: species or system Homo sapiens
Mus musculus [10] = test: Antipsychotic efficacy against amphetamine-induced hyperlocomotion in male C57Bl/6 mouse assessed as reversal of hyperlocomotive state administered ip and pretreated with compound followed by amphetamine addition for 60 mins and measured after 90 mins; assay type: functional, organism-based; settings: dose 3-30 mg/kg
[11] = target: Metabotropic glutamate receptor 5 (Rattus norvegicus, UniProt P31424); test: Positive allosteric modulation of rat mGlu5 receptor
Sequence of Metabotropic glutamate receptor 5 (Rattus norvegicus, UniProt P31424) (P31424 whole entry): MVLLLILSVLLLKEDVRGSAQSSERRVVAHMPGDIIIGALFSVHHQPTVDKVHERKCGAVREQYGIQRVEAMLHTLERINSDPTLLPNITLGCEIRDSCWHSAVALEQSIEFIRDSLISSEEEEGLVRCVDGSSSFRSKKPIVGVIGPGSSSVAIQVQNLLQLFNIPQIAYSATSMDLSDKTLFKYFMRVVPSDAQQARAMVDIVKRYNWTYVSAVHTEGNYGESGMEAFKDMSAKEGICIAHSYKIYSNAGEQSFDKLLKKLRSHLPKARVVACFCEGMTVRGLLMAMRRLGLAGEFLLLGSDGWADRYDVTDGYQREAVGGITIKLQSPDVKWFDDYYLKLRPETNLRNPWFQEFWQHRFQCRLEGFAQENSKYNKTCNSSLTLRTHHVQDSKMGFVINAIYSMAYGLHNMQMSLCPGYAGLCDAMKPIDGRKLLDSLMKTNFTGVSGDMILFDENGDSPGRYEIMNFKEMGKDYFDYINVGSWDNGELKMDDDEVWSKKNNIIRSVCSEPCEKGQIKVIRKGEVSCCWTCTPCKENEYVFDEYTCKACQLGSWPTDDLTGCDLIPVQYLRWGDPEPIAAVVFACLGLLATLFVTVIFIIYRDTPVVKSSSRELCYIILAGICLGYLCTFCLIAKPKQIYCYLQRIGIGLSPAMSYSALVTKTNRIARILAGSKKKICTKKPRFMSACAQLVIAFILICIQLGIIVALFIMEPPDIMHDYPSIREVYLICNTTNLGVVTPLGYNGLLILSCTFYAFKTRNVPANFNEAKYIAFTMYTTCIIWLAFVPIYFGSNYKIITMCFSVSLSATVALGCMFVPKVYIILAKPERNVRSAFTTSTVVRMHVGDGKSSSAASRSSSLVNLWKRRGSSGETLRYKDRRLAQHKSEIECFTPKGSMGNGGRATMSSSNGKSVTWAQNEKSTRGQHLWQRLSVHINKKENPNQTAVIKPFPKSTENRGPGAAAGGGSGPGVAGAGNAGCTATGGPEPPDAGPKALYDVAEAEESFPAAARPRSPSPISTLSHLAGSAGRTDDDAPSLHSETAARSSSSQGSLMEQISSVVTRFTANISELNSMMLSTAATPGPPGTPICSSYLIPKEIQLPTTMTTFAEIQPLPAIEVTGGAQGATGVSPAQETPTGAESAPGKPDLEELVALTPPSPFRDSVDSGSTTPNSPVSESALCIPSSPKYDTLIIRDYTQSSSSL

[12] = target: Metabotropic glutamate receptor 8 (Rattus norvegicus, UniProt P70579); test: Positive allosteric modulation of rat mGlu8 receptor
[13] = Toxicity in male Wistar rat assessed as reduction in beta power at 10 mg/kg, po measured at 60 to 240 mins post treatment by EEG analysis; assay type: organism-based; settings: in vivo, time 60-240 min
[14] = Cmax in amphetamine-induced male Sprague-Dawley rat model at 60 mg/kg and measured at 3.33 hrs post administration; assay type: ADME, organism-based; settings: in vivo
[15] = Toxicity in male Wistar rat assessed as reduction in non rapid eye movement sleep at 1 to 10 mg/kg, po measured at 30 to 120 mins post treatment by EEG analysis; assay type: organism-based; settings: in vivo, dose lower 1 mg/kg, time lower 30 min, dose upper 10 mg/kg, time upper 120 min
[16] = Drug metabolism in human liver microsomes assessed as furanyl ring opening incubated for 60 mins; assay type: ADME, Microsome; settings: 1 h
[17] = Toxicity in male Wistar rat assessed as reduction in alpha power at 10 mg/kg, po measured at 60 to 240 mins post treatment by EEG analysis; assay type: organism-based; settings: in vivo, time 60-240 min
[18] = Unbound brain concentration in amphetamine-induced hyperlocomotion male Sprague-Dawley rat model at 3 mg/kg, po; assay type: ADME, organism-based; settings: in vivo
[19] = Glutathione reactivity in rat liver microsomes incubated for 1 hr in presence of glutathione; assay type: ADME, Microsome
Rattus norvegicus [20] = test: Antipsychotic activity in male Sprague-Dawley rat assessed as reduction in amphetamine-induced locomotor activity by measuring reversal of total ambulation at 3 mg/kg, po pretreated for 1 hrs followed by amphetamine addition and measured at 95 to 180 mins relative to control; assay type: functional; set-up: scale not given: the % may be the effect or the level left
[21] = target: T1, Metabotropic glutamate receptor 1; test: Positive allosteric modulation of mGlu1 receptor (unknown origin) in presence of glutamate at EC20 concentration; settings: filed as positive allosteric modulator
Target sequence in this assay (Q13255 19-1194 limits assumed): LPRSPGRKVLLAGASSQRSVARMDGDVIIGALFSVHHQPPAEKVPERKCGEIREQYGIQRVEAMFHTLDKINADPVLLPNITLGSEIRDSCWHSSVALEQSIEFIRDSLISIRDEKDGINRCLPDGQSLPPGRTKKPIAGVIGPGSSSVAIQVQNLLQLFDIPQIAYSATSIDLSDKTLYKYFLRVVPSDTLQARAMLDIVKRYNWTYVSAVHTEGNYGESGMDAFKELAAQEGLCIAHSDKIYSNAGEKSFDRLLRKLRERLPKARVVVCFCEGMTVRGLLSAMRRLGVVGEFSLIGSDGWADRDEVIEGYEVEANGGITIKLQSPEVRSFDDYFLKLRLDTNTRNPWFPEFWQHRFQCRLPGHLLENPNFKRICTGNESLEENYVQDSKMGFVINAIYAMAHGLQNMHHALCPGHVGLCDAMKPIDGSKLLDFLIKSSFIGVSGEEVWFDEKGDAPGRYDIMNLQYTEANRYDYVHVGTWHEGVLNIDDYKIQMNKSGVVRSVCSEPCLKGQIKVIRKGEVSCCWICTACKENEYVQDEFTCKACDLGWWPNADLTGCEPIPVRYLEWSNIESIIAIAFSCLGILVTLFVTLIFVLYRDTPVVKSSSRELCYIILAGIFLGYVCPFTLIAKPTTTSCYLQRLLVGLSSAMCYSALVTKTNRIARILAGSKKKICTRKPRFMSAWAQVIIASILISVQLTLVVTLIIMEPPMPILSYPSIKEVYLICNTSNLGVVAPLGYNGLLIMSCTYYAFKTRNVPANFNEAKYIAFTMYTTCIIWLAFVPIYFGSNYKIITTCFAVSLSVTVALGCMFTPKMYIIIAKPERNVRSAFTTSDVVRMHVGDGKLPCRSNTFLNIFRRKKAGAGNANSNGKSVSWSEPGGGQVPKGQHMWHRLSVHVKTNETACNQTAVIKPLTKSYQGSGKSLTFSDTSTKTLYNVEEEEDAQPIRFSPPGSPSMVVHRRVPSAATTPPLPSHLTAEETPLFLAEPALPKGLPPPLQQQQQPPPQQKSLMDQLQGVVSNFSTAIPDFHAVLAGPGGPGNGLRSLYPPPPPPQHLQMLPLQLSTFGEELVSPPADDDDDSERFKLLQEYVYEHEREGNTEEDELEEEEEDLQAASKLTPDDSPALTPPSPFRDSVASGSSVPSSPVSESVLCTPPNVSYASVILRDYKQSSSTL

[22] = target: Metabotropic glutamate receptor 3 (Rattus norvegicus, UniProt P31422); test: Positive allosteric modulation of rat mGlu3 receptor
Rattus norvegicus [23] = test: Antipsychotic activity in male Sprague-Dawley rat assessed as reduction in amphetamine-induced locomotor activity by measuring reversal of total ambulation at 10 mg/kg, po pretreated for 5 hrs followed by amphetamine addition and measured at 95 to 180 mins relative to control; assay type: functional; set-up: scale not given: the % may be the effect or the level left
[24] = Glutathione reactivity in human liver microsomes incubated for 1 hr in presence of glutathione; assay type: ADME, Microsome
[25] = target: Metabotropic glutamate receptor 3 (Homo sapiens, UniProt Q14832); test: Positive allosteric modulation of human mGlu3 receptor
Sequence of Metabotropic glutamate receptor 3 (Homo sapiens, UniProt Q14832) (Q14832 whole entry): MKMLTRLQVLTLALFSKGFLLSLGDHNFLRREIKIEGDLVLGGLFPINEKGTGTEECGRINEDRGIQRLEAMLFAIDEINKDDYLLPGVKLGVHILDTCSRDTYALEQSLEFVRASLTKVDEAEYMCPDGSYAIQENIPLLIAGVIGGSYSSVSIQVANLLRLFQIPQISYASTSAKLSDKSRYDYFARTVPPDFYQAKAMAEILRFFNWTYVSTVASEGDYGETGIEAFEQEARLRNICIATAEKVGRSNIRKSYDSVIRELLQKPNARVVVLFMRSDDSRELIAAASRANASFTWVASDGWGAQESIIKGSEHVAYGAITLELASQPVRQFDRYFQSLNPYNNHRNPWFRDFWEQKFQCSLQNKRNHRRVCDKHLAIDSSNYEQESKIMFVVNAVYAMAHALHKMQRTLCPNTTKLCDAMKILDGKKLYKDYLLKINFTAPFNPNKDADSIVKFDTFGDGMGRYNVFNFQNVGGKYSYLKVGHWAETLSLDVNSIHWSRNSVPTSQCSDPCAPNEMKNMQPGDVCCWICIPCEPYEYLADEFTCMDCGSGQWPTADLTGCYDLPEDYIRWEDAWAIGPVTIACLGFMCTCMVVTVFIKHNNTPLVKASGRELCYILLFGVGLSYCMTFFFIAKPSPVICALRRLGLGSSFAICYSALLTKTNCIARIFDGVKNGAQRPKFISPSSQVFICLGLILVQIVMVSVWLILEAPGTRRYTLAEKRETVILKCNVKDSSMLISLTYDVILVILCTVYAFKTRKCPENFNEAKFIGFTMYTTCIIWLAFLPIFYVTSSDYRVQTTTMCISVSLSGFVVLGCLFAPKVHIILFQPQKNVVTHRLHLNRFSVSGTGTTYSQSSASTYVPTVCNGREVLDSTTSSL

[26] = Toxicity in male Wistar rat assessed as improvement in sleep-wake profile by measuring quiet wake state at 10 mg/kg, po measured at 120 mins post treatment by EEG analysis; assay type: organism-based; settings: in vivo, 2 h
Mus musculus [27] = test: Reversal of MK-801 induced deficits in male C57BL/6JRj mouse model assessed as 40 Hz ASSR in prefrontal cortex at 0.8 mg/kg, sc measured after 15 mins; assay type: functional, organism-based
[28] = Toxicity in male Wistar rat assessed as reduction in delta power at 10 mg/kg, po measured at 60 to 240 mins post treatment by EEG analysis; assay type: organism-based; settings: in vivo, time 60-240 min
[29] = target: Metabotropic glutamate receptor 7 (Homo sapiens, UniProt Q14831); test: Positive allosteric modulation of human mGlu7 receptor
[30] = target: T1, Metabotropic glutamate receptor 1; test: Agonist activity at mGlu1 receptor (unknown origin) upto 30 uM; assay type: functional
Target sequence in this assay (Q13255 19-1194 limits assumed): as the sequence (Q13255 19-1194 limits assumed) above

Mus musculus [31] = test: Reversal of MK-801 induced deficits in sc dosed male C57BL/6JRj mouse model assessed as 40 Hz ASSR in prefrontal cortex measured after 15 mins; assay type: functional, organism-based; settings: dose 0.8-3 mg/kg
[32] = target: Metabotropic glutamate receptor 2 (Rattus norvegicus, UniProt P31421); test: Positive allosteric modulation of rat mGlu2 receptor
Sequence of Metabotropic glutamate receptor 2 (Rattus norvegicus, UniProt P31421) (P31421 whole entry): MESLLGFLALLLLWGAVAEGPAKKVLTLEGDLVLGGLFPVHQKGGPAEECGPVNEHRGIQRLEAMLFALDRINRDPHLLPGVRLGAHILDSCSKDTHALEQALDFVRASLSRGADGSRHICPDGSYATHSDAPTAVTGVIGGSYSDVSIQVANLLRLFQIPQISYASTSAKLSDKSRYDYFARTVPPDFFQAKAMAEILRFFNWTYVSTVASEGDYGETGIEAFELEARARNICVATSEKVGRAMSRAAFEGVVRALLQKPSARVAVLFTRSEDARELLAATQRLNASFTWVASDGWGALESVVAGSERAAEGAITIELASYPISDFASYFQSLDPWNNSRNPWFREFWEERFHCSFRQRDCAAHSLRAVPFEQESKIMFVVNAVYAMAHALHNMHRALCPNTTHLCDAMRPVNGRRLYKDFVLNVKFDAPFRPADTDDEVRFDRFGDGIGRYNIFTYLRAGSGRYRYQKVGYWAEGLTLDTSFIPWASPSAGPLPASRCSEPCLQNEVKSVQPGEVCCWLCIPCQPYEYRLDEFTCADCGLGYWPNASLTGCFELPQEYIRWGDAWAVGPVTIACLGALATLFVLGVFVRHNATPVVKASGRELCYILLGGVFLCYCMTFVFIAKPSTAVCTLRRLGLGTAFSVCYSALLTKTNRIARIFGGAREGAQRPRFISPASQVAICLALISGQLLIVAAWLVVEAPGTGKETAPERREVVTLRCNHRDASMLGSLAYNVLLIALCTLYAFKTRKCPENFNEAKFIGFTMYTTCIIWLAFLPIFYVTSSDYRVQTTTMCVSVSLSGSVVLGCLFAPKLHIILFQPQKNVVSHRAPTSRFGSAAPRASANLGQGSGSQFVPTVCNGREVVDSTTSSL

[33] = target: Metabotropic glutamate receptor 7 (Rattus norvegicus, UniProt P35400); test: Positive allosteric modulation of rat mGlu7 receptor
[34] = Stability of compound at pH 7.4; assay type: physicochemical; settings: buffer
[35] = Drug metabolism in rat liver microsomes assessed as furanyl ring oxidation incubated for 60 mins; assay type: ADME, Microsome; settings: 1 h
[36] = Toxicity in male Sprague-Dawley rat assessed as catalepsy at 1 to 10 mg/kg, po measured after 60 mins; assay type: organism-based; settings: in vivo, 1 h, dose 1-10 mg/kg
[37] = Unbound brain concentration in amphetamine-induced hyperlocomotion male Sprague-Dawley rat model at 10 mg/kg, po measured after 6.5 hrs; assay type: ADME, organism-based; settings: in vivo
[38] = Unbound brain concentration in amphetamine-induced hyperlocomotion male Sprague-Dawley rat model at 3 mg/kg, po measured after 2.5 hrs; assay type: ADME, organism-based; settings: in vivo
[39] = Toxicity in male Wistar rat assessed as increase in motor activity at 10 mg/kg, po measured at 120 mins post treatment by EEG analysis; assay type: organism-based; settings: in vivo, 2 h
[40] = Unbound brain concentration in amphetamine-induced hyperlocomotion male Sprague-Dawley rat model at 10 mg/kg, po; assay type: ADME, organism-based; settings: in vivo
Mus musculus [41] = test: Reversal of MK-801 induced deficits in male C57BL/6JRj mouse model assessed as 40 Hz ASSR in prefrontal cortex at 4 to 10 mg/kg, sc measured after 15 mins; assay type: functional, organism-based; settings: dose 4-10 mg/kg
Rattus norvegicus [42] = test: Antipsychotic efficacy against amphetamine-induced hyperlocomotion in male Sprague-Dawley rat assessed as reversal of hyperlocomotive state administered orally pretreated with compound followed by amphetamine addition and measured after 90 mins; assay type: functional, organism-based; settings: dose 1-10 mg/kg, route po
[43] = Toxicity in male Wistar rat assessed as change in body temperature at 10 mg/kg, po measured at 120 mins post treatment by EEG analysis; assay type: organism-based; settings: in vivo, 2 h
[44] = target: Metabotropic glutamate receptor 8 (Homo sapiens, UniProt O00222); test: Positive allosteric modulation of human mGlu8 receptor
[45] = Stability of compound at pH 2.2; assay type: physicochemical; settings: buffer
[46] = Drug metabolism in human liver microsomes assessed as furanyl ring oxidation incubated for 60 mins; assay type: ADME, Microsome; settings: 1 h
[47] = Unbound brain concentration in amphetamine-induced hyperlocomotion male Sprague-Dawley rat model at 3 mg/kg, po pretreated for 2.5 hrs; assay type: ADME, organism-based; settings: in vivo
[48] = Unbound initial plasma concentration in male dog at 0.5 mg/kg, iv; assay type: ADME, organism-based, Canis lupus familiaris; settings: in vivo
[49] = target: Metabotropic glutamate receptor 4 (Homo sapiens, UniProt Q14833); test: Positive allosteric modulation of human mGlu4 receptor
[50] = target: Metabotropic glutamate receptor 5 (Homo sapiens, UniProt P41594); test: Positive allosteric modulation of human mGlu5 receptor
[51] = target: T1, Metabotropic glutamate receptor 1; test: Antagonist activity at mGlu1 receptor (unknown origin) assessed as desensitization of receptor at EC80 concentration; settings: filed as antagonist
Target sequence in this assay (Q13255 19-1194 limits assumed): as the sequence (Q13255 19-1194 limits assumed) above

[52] = Toxicity in male Wistar rat assessed as reduction in rapid eye movement sleep at 1 to 10 mg/kg, po measured at 30 to 120 mins post treatment by EEG analysis; assay type: organism-based; settings: in vivo, dose lower 1 mg/kg, time lower 30 min, dose upper 10 mg/kg, time upper 120 min
[53] = target: Metabotropic glutamate receptor 4 (Rattus norvegicus, UniProt P31423); test: Positive allosteric modulation of rat mGlu4 receptor
Sequence of Metabotropic glutamate receptor 4 (Rattus norvegicus, UniProt P31423) (P31423 whole entry): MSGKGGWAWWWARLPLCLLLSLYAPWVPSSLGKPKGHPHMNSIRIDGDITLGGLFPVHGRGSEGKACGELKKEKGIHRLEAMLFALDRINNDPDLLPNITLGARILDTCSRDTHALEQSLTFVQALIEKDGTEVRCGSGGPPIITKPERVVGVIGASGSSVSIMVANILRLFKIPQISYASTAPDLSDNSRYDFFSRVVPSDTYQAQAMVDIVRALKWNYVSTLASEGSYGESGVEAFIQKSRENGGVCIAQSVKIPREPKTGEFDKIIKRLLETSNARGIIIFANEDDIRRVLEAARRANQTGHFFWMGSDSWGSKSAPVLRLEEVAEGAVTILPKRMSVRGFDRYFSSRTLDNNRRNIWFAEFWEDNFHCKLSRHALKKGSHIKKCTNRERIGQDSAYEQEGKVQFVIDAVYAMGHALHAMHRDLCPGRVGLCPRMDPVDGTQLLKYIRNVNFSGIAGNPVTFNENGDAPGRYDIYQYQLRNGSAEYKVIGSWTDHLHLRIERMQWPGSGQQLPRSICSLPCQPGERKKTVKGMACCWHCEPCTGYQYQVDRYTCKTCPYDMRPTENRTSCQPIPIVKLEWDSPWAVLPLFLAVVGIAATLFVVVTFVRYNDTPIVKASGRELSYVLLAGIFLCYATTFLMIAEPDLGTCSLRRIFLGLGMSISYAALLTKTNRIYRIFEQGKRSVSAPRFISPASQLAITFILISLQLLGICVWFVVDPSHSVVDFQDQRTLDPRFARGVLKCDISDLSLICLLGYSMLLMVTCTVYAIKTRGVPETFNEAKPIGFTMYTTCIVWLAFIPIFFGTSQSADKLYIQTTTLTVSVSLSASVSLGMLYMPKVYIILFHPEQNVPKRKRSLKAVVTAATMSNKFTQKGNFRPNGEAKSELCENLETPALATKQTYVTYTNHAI

Rattus norvegicus [54] = test: Antipsychotic efficacy against MK-801-induced po dosed male Sprague-Dawley rat assessed as reversal of MK-801 disruption by measuring recognition index measured after 30 mins by novel object recognition test; assay type: functional, organism-based; settings: dose 1-10 mg/kg
[55] = Unbound brain concentration in male Sprague-Dawley rat at 3 mg/kg, po in 10% tween 80 formulation measured at 15 to 420 mins by LC-MS/MS analysis; assay type: ADME, organism-based; settings: in vivo, time 15-420 min
[56] = target: Metabotropic glutamate receptor 2 (Homo sapiens, UniProt Q14416); test: Positive allosteric modulation of human mGlu2 receptor

## Cc1ccc2c(c1)C(=O)N(c1ccc(NC(=O)c3occc3C)c(F)c1)C2=O
[1]
  C0(unbound): 36.4 nM
[2]
  concentration: 1100 nM
[3]
  EC50: 0.013 µM

## O=C(CCCN1CCC(O)(c2ccc(Cl)cc2)CC1)c1ccc(F)cc1 [HALOPERIDOL]
[4]
  Activity: Toxic

## Cn1nc(-c2ccnn2C)cc1CNC(=O)c1cc(-c2ccco2)ccc1Cl
[5]
  Activity: Non-toxic
[6]
  Drug metabolism: metabolite_notdetected
[7]
  Activity: Non-toxic
Mus musculus [8]
  Activity: Active
[9]
  IC50: 0.207 µM
Mus musculus [10]
  Activity: Dose-dependent-effect
[11]
  EC50: > 30 µM
[12]
  EC50: > 30 µM
[13]
  Activity: Non-toxic
[14]
  Cmax: 313 nM
[15]
  Activity: Non-toxic
[16]
  Drug metabolism: metabolite_notdetected
[17]
  Activity: Non-toxic
[18]
  Drug uptake(free): 40 nM
[19]
  Drug metabolism: metabolite_detected
Rattus norvegicus [20]
  Activity: 27.3%
[21]
  Activity: Active
[22]
  EC50: > 30 µM
Rattus norvegicus [23]
  Activity: 25.1%
[24]
  Drug metabolism: metabolite_detected
[25]
  EC50: > 30 µM
[26]
  Activity: Non-toxic
Mus musculus [27]
  Activity: inactive
[28]
  Activity: Non-toxic
[29]
  EC50: > 30 µM
[30]
  Activity: inactive
Mus musculus [31]
  Activity: Active
[32]
  EC50: > 30 µM
[33]
  EC50: > 30 µM
[34]
  Stability: Stable
[35]
  Drug metabolism: metabolite_notdetected
[36]
  Activity: Non-toxic
[37]
  Drug uptake(free): 44 nM
[38]
  Drug uptake(free): 40 nM
[39]
  Activity: Non-toxic
[40]
  Drug uptake(free): 44 nM
Mus musculus [41]
  Activity: Active
Rattus norvegicus [42]
  Activity: Dose-dependent-effect
[43]
  Activity: Non-toxic
[44]
  EC50: > 30 µM
[45]
  Stability: Stable
[46]
  Drug metabolism: metabolite_notdetected
[47]
  Drug uptake(free): 32 nM
[48]
  C0(unbound): 80 nM
[49]
  EC50: > 30 µM
[50]
  EC50: > 30 µM
[51]
  Activity: Active; Slight Desensitization Was Observed
[52]
  Activity: Non-toxic
[53]
  EC50: > 30 µM
Rattus norvegicus [54]
  Activity: Dose-dependent-effect
[55]
  Drug uptake(free): 100 nM
[56]
  EC50: > 30 µM
